Measurements from ChEMBL document CHEMBL3885881, “DrugMatrix”.

Species on record: Rattus norvegicus
Assay: DrugMatrix - Regimen: Daily Repeat
Assay type: toxicity, organism-based, Sprague-Dawley
Design: regimen Daily Repeat, gender Male, age 6-8 weeks
Conditions: in vivo, po, route oral GAVAGE, vehicle 100 % WATER; for ABSOLUTE BASOPHIL / ABSOLUTE EOSINOPHIL / ABSOLUTE LYMPHOCYTE / ABSOLUTE MONOCYTE / ABSOLUTE SEGMENTED NEUTROPHIL / BASOPHIL / EOSINOPHIL / ERYTHROCYTE COUNT / HEMATOCRIT / HEMOGLOBIN / LEUKOCYTE COUNT / LYMPHOCYTE / MEAN CORPUSCULAR HEMOGLOBIN / MEAN CORPUSCULAR HEMOGLOBIN CONCENTRATION / MEAN CORPUSCULAR VOLUME / MONOCYTE / NEUTROPHIL / NUCLEATED RED BLOOD CELLS / PLATELET COUNT: tissue Blood; for ALANINE AMINOTRANSFERASE / ALBUMIN / ALKALINE PHOSPHATASE / ASPARTATE AMINOTRANSFERASE / BLOOD UREA NITROGEN / CARBON DIOXIDE / CHLORIDE / CHOLESTEROL / CREATINE PHOSPHOKINASE / CREATININE / GLUCOSE / LACTATE DEHYDROGENASE / LIPASE / PHOSPHORUS / POTASSIUM / SODIUM / TOTAL BILIRUBIN / TOTAL PROTEIN / URIC ACID: tissue Plasma
[1] = 0 mg/kg, 72 h, dose level Control, time 3 day
[2] = 0 mg/kg, 120 h, dose level Control, time 5 day
[3] = 120 mg/kg, 72 h, dose level Low, time 3 day

In the case of Nc1ccc(S(=O)(=O)Nc2ccnn2-c2ccccc2)cc1 [SULFAPHENAZOLE], the “ABSOLUTE BASOPHIL” value [1] is reported as 0 CELLS/uL, the “ABSOLUTE EOSINOPHIL” value [1] is reported as 20.17 CELLS/uL and the “ABSOLUTE LYMPHOCYTE” value [1] is reported as 12371.67 CELLS/uL. The “ABSOLUTE MONOCYTE” value [1] was 166 CELLS/uL, the “ABSOLUTE SEGMENTED NEUTROPHIL” value [1] was 1292.17 CELLS/uL and the BASOPHIL [1] was 0%. The EOSINOPHIL [1] was 0.17%, the “ERYTHROCYTE COUNT” value [1] was 5.46 x10E6/uL and the HEMATOCRIT [1] was 34.38%. For the same molecule, the HEMOGLOBIN [1] was 13.32 G/DL, the “LEUKOCYTE COUNT” value [1] was 13.85 x10E3/uL and the LYMPHOCYTE [1] was 88.5%. For the same molecule, the “MEAN CORPUSCULAR HEMOGLOBIN” value [1] was 24.42 pg, the “MEAN CORPUSCULAR HEMOGLOBIN CONCENTRATION” value [1] was 38.7 G/DL and the “MEAN CORPUSCULAR VOLUME” value [1] was 63.07 fL. For the same molecule, the MONOCYTE [1] was 1.17%, the NEUTROPHIL [1] was 10.17% and the “NUCLEATED RED BLOOD CELLS” value [1] was 0.17 /100WBC. For the same molecule, the “PLATELET COUNT” value [1] was 1193.5 x10E3/uL, the “ALANINE AMINOTRANSFERASE” value [1] was 54.5 u/L and the ALBUMIN [1] was 4.02 G/DL. The “ALKALINE PHOSPHATASE” value [1] was 346.5 u/L, the “ASPARTATE AMINOTRANSFERASE” value [1] was 103.17 u/L and the “BLOOD UREA NITROGEN” value [1] was 16.5 mg/dL. For the same molecule, the “CARBON DIOXIDE” value [1] was 29.83 mmol/L, the CHLORIDE [1] was 99.5 MEQ/L and the CHOLESTEROL [1] was 72.5 mg/dL. The “CREATINE PHOSPHOKINASE” value [1] was 532.5 u/L, the CREATININE [1] was 0.18 mg/dL and the GLUCOSE [1] was 168.5 mg/dL. The “LACTATE DEHYDROGENASE” value [1] was 536.5 u/L, the LIPASE [1] was 11.17 u/L and the PHOSPHORUS [1] was 11.48 mg/dL. The POTASSIUM [1] was 5.95 MEQ/L, the SODIUM [1] was 140.5 MEQ/L and the “TOTAL BILIRUBIN” value [1] was 0.18 mg/dL. The “TOTAL PROTEIN” value [1] was 5.77 G/DL, the “URIC ACID” value [1] was 1.42 mg/dL and the “ABSOLUTE BASOPHIL” value [2] was 0 CELLS/uL. The “ABSOLUTE EOSINOPHIL” value [2] was 22.83 CELLS/uL, the “ABSOLUTE LYMPHOCYTE” value [2] was 12202.83 CELLS/uL and the “ABSOLUTE MONOCYTE” value [2] was 158 CELLS/uL. For the same molecule, the “ABSOLUTE SEGMENTED NEUTROPHIL” value [2] was 1283 CELLS/uL, the BASOPHIL [2] was 0% and the EOSINOPHIL [2] was 0.17%. The “ERYTHROCYTE COUNT” value [2] was 5.88 x10E6/uL, the HEMATOCRIT [2] was 36.62% and the HEMOGLOBIN [2] was 14.07 G/DL. For the same molecule, the “LEUKOCYTE COUNT” value [2] was 13.67 x10E3/uL, the LYMPHOCYTE [2] was 89.5% and the “MEAN CORPUSCULAR HEMOGLOBIN” value [2] was 23.95 pg. The “MEAN CORPUSCULAR HEMOGLOBIN CONCENTRATION” value [2] was 38.43 G/DL, the “MEAN CORPUSCULAR VOLUME” value [2] was 62.28 fL and the MONOCYTE [2] was 1.17%. For the same molecule, the NEUTROPHIL [2] was 9.17%, the “NUCLEATED RED BLOOD CELLS” value [2] was 0.17 /100WBC and the “PLATELET COUNT” value [2] was 1198 x10E3/uL. For the same molecule, the “ALANINE AMINOTRANSFERASE” value [2] was 51 u/L, the ALBUMIN [2] was 4.3 G/DL and the “ALKALINE PHOSPHATASE” value [2] was 343 u/L. The “ASPARTATE AMINOTRANSFERASE” value [2] was 89.83 u/L, the “BLOOD UREA NITROGEN” value [2] was 17.67 mg/dL and the “CARBON DIOXIDE” value [2] was 27.17 mmol/L. For the same molecule, the CHLORIDE [2] was 98.33 MEQ/L, the CHOLESTEROL [2] was 82.5 mg/dL and the “CREATINE PHOSPHOKINASE” value [2] was 533.33 u/L. For the same molecule, the CREATININE [2] was 0.18 mg/dL, the GLUCOSE [2] was 152.67 mg/dL and the “LACTATE DEHYDROGENASE” value [2] was 220.33 u/L. For the same molecule, the LIPASE [2] was 11.5 u/L, the PHOSPHORUS [2] was 11.25 mg/dL and the POTASSIUM [2] was 6.29 MEQ/L. The SODIUM [2] was 140.53 MEQ/L, the “TOTAL BILIRUBIN” value [2] was 0.22 mg/dL and the “TOTAL PROTEIN” value [2] was 6.12 G/DL. The “URIC ACID” value [2] was 1.42 mg/dL, the “ABSOLUTE BASOPHIL” value [3] was 0 CELLS/uL and the “ABSOLUTE EOSINOPHIL” value [3] was 0 CELLS/uL. The “ABSOLUTE LYMPHOCYTE” value [3] was 13809.67 CELLS/uL, the “ABSOLUTE MONOCYTE” value [3] was 111 CELLS/uL and the “ABSOLUTE SEGMENTED NEUTROPHIL” value [3] was 1579.33 CELLS/uL. For the same molecule, the BASOPHIL [3] was 0%, the EOSINOPHIL [3] was 0% and the “ERYTHROCYTE COUNT” value [3] was 5.26 x10E6/uL. The HEMATOCRIT [3] was 32.3%, the HEMOGLOBIN [3] was 13 G/DL and the “LEUKOCYTE COUNT” value [3] was 15.5 x10E3/uL. For the same molecule, the LYMPHOCYTE [3] was 88.67%, the “MEAN CORPUSCULAR HEMOGLOBIN” value [3] was 24.77 pg and the “MEAN CORPUSCULAR HEMOGLOBIN CONCENTRATION” value [3] was 40.33 G/DL. The “MEAN CORPUSCULAR VOLUME” value [3] was 61.43 fL, the MONOCYTE [3] was 0.67% and the NEUTROPHIL [3] was 10.67%. For the same molecule, the “NUCLEATED RED BLOOD CELLS” value [3] was 0 /100WBC, the “PLATELET COUNT” value [3] was 1150 x10E3/uL and the “ALANINE AMINOTRANSFERASE” value [3] was 66 u/L. The ALBUMIN [3] was 3.9 G/DL, the “ALKALINE PHOSPHATASE” value [3] was 348.67 u/L and the “ASPARTATE AMINOTRANSFERASE” value [3] was 94.33 u/L. The “BLOOD UREA NITROGEN” value [3] was 14 mg/dL, the “CARBON DIOXIDE” value [3] was 29.33 mmol/L and the CHLORIDE [3] was 97.67 MEQ/L. The CHOLESTEROL [3] was 74.67 mg/dL, the “CREATINE PHOSPHOKINASE” value [3] was 287.67 u/L and the CREATININE [3] was 0.15 mg/dL. The GLUCOSE [3] was 149.33 mg/dL, the “LACTATE DEHYDROGENASE” value [3] was 195.67 u/L and the LIPASE [3] was 10 u/L. The PHOSPHORUS [3] was 11.53 mg/dL, the POTASSIUM [3] was 6.01 MEQ/L and the SODIUM [3] was 140.83 MEQ/L. The “TOTAL BILIRUBIN” value [3] was 0.17 mg/dL, the “TOTAL PROTEIN” value [3] was 5.63 G/DL and the “URIC ACID” value [3] was 1.33 mg/dL.
